The values below come from ChEMBL document CHEMBL1201862, “PubChem BioAssay data set” (2004).

Some test systems named below: KM12; A498; SW-620; UACC-62; TK-10; CAKI-1; A549; OVCAR-4; HCC 2998; SR; COLO 205; SF-295; SK-MEL-5; DMS-114.
What all share (test): NCI anticancer screen, dose series, 48 h

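Test compounds were applied to cells in 96-well plates for 48 hours at 5 doses. Here, GI50 denotes the concentration required for 50% inhibition of growth.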 Activity calls are given as the source filed them. Cut-off read from the data, not from the text of the source: active = GI50 up to about 1.1 µM and inactive = higher. Bounds are passed on as bounds.

Turning to `CCOC(=O)C(=O)/C=C(\C)Nc1c(NC2OCC(OC(C)=O)C(OC(C)=O)C2OC(C)=O)nc(SC)[nH]c1=O` (stereo not drawn), the GI50 with KM12, in the assay with A498, in the assay with SW-620, in the assay with UACC-62, with TK-10 and with CAKI-1 was > 100 µM (inactive) each time. Moreover, the GI50 in the assay on A549, in the assay on OVCAR-4, in the assay on HCC 2998, in the assay with SR, with COLO 205 and with SF-295 was > 100 µM (inactive) in each case. In addition, the GI50 in the assay with SK-MEL-5 and with DMS-114 was > 100 µM (inactive) throughout.

As to `Nc1ccc(C(=O)N/C(=C\c2cccc([N+](=O)[O-])c2)c2nc3ccccc3[nH]2)cc1`, the GI50 in the assay on KM12 was > 100 µM (inactive); in the assay on A498, 61.8 µM (inactive); with SW-620, > 100 µM (inactive); in the assay on UACC-62, 46 µM (inactive); in the assay with TK-10 it was 49 µM (inactive); with CAKI-1, 47 µM (inactive). Further, the GI50 with A549 was 51.3 µM (inactive); in the assay with OVCAR-4, 25.1 µM (inactive); with HCC 2998 it was > 100 µM (inactive); in the assay with SR, > 100 µM (inactive); with COLO 205, > 100 µM (inactive); in the assay with SF-295, 28.4 µM (inactive). In addition, the values for the GI50 with SK-MEL-5 and in the assay on DMS-114 were 76.4 µM (inactive) and 29.4 µM (inactive), respectively.

For the compound `Cc1ccc(NC(=O)CC2SC(Nc3ccc(Cl)cc3)=NC2=O)cc1C` (stereo not drawn), the GI50 in the assay on KM12 is 19.9 µM (inactive); in the assay with A498, 23 µM (inactive); with SW-620, 7.08 µM (inactive); in the assay with UACC-62, 18.3 µM (inactive); in the assay on TK-10 it was 17.3 µM (inactive); in the assay with CAKI-1 it was 21.2 µM (inactive). Also, the GI50 with A549 was 18.2 µM (inactive); in the assay with OVCAR-4, 20.2 µM (inactive); with HCC 2998, 18.6 µM (inactive); in the assay on SR, 6.59 µM (inactive); in the assay on COLO 205, 13.2 µM (inactive); with SF-295, > 44 µM (inactive). Moreover, the GI50 was 20.3 µM (inactive) in the assay on SK-MEL-5 and 21 µM (inactive) in the assay on DMS-114.

For `O=C(O)C(C(=O)C(=O)C(C(=O)O)c1ccc(Cl)cc1)c1ccc(Cl)cc1` (stereo not drawn), the GI50 is 3.75 µM (inactive) with KM12; 4.76 µM (inactive) in the assay with A498; 3.98 µM (inactive) in the assay on SW-620; 1.87 µM (inactive) in the assay with UACC-62; 4.57 µM (inactive) with TK-10; 4.13 µM (inactive) in the assay on CAKI-1. Further, the GI50 with A549 is 2.9 µM (inactive); in the assay with OVCAR-4 it was 1.89 µM (inactive); with HCC 2998, 4.02 µM (inactive); in the assay on SR, 1.91 µM (inactive); in the assay with COLO 205, 6.44 µM (inactive); with SF-295, 8.65 µM (inactive). In the assay with DMS-114, the GI50 is 2.24 µM (inactive).

With `C[Si](C)(C)CN1C(=O)c2ccccc2C1(O)c1ccccc1` (stereo not drawn), the GI50 was 59.7 µM (inactive) in the assay on KM12; > 100 µM (inactive) with A498; > 100 µM (inactive) in the assay on SW-620; 62.7 µM (inactive) in the assay on UACC-62; > 100 µM (inactive) in the assay with TK-10; 46.1 µM (inactive) with CAKI-1. Further, the GI50 with A549 was 40.4 µM (inactive); in the assay with OVCAR-4, 70.6 µM (inactive); with HCC 2998, > 100 µM (inactive); in the assay on SR, 83.6 µM (inactive); with COLO 205 it was 92.7 µM (inactive); in the assay with SF-295 it was 64.4 µM (inactive). Also, the GI50 with SK-MEL-5 is 46.6 µM (inactive); in the assay with DMS-114 it was 41.6 µM (inactive).

For the compound `N#C/C(N)=N/c1ccccc1`, the GI50 in the assay with KM12, in the assay on A498, in the assay on SW-620, with UACC-62, in the assay on TK-10 and with CAKI-1 was > 100 µM (inactive) throughout. Further, the GI50 in the assay with A549, in the assay on OVCAR-4, with HCC 2998, in the assay on SR, in the assay on COLO 205 and in the assay on SF-295 was > 100 µM (inactive) throughout. Also, the GI50 in the assay with SK-MEL-5 was > 100 µM (inactive); in the assay on DMS-114, 16.9 µM (inactive).

Take `CCCN/C(N)=N/C#N`: the GI50 in the assay on KM12 is > 100 µM (inactive); in the assay on A498, 67.6 µM (inactive); with SW-620, 13.6 µM (inactive); in the assay on UACC-62 it was > 100 µM (inactive); with TK-10, > 100 µM (inactive); in the assay on CAKI-1, > 100 µM (inactive). For the same compound, the GI50 is > 100 µM (inactive) with A549; 37.1 µM (inactive) in the assay with OVCAR-4; > 100 µM (inactive) in the assay with HCC 2998; 25.1 µM (inactive) with SR; 18 µM (inactive) with COLO 205; > 100 µM (inactive) with SF-295. In addition, the results for the GI50 with SK-MEL-5 and in the assay with DMS-114 were > 100 µM (inactive) and 19.4 µM (inactive), respectively.

As to `CC(=O)c1ccc(NC(=O)COC(=O)c2cccc3c(=O)c4ccccc4[nH]c23)cc1`, the GI50 is 12.9 µM (inactive) with KM12; 44 µM (inactive) with A498; 52.8 µM (inactive) in the assay on SW-620; 24.9 µM (inactive) in the assay with UACC-62; 21.7 µM (inactive) in the assay with TK-10; > 100 µM (inactive) in the assay on CAKI-1. The GI50 is 45.4 µM (inactive) in the assay with A549; 6.79 µM (inactive) in the assay with OVCAR-4; > 100 µM (inactive) with HCC 2998; > 100 µM (inactive) in the assay on SR; 33.6 µM (inactive) in the assay on COLO 205; 15.8 µM (inactive) in the assay with SF-295. Also, the GI50 was 29.4 µM (inactive) in the assay on SK-MEL-5 and 34.8 µM (inactive) in the assay with DMS-114.

For `COC(=O)C(=O)C1(CCC(C)=O)c2ccccc2-c2c(C)ccc(C)c21` (stereo not drawn), the GI50 in the assay on KM12 was 43 µM (inactive); in the assay with A498, 55.7 µM (inactive); with SW-620, 48.4 µM (inactive); in the assay with UACC-62, 7.53 µM (inactive); in the assay on TK-10, 39.6 µM (inactive); in the assay with CAKI-1, 31.4 µM (inactive). Moreover, the GI50 is 46.5 µM (inactive) with A549; 68.9 µM (inactive) in the assay with OVCAR-4; 87.5 µM (inactive) with HCC 2998; 19.2 µM (inactive) in the assay with SR; 34.7 µM (inactive) in the assay on COLO 205; 81.7 µM (inactive) in the assay on SF-295. Further, the GI50 in the assay with SK-MEL-5 is 25.5 µM (inactive); in the assay on DMS-114 it was 33.7 µM (inactive).

For the compound `COc1cccc(C=O)c1C(=O)c1cc(O)ccc1O`, the GI50 is > 100 µM (inactive) with KM12; > 44.9 µM (inactive) in the assay on A498; 17.1 µM (inactive) in the assay on SW-620; 54.8 µM (inactive) in the assay on UACC-62; 29.6 µM (inactive) in the assay with TK-10; 23.7 µM (inactive) with CAKI-1. The GI50 in the assay with A549 was > 100 µM (inactive); in the assay on OVCAR-4, 18.3 µM (inactive); in the assay on HCC 2998 it was > 100 µM (inactive); in the assay with SR it was 0.457 µM (active); with COLO 205, 18.1 µM (inactive); in the assay with SF-295, > 100 µM (inactive). For the same compound, the figures for the GI50 in the assay with SK-MEL-5 and in the assay on DMS-114 were 91.8 µM (inactive) and 11 µM (inactive), respectively.

As to `Cc1ccc2[nH]c(Sc3c([N+](=O)[O-])ncn3C)nc2c1`, the GI50 with KM12 is 67 µM (inactive); with A498 it was 25.1 µM (inactive); with SW-620, 25.3 µM (inactive); in the assay on UACC-62, 19 µM (inactive); in the assay on TK-10, 44.9 µM (inactive); in the assay with CAKI-1, 11.9 µM (inactive). The GI50 in the assay with A549 was 30.5 µM (inactive); in the assay on OVCAR-4, 18.1 µM (inactive); in the assay with HCC 2998, 15.7 µM (inactive); in the assay on SR, 12.3 µM (inactive); in the assay with COLO 205, 13.3 µM (inactive); in the assay on SF-295, > 100 µM (inactive). The values for the GI50 with SK-MEL-5 and in the assay on DMS-114 were 17.1 µM (inactive) and 14.3 µM (inactive), respectively.
